# “Also recorded” adds a separate entry of the source.
# What was measured:
# [1] = system: B-cells (CD20), CD3 positive lymphocytes; test: Enumeration of B- and T-lymphocyte subpopulations in peripheral blood by flow cytometry; assay type: in vivo, human; conditions: 375 mg/m^2 weekly for 3 weeks, then at 12 weeks intervals
# Method: Enumeration of B- and T-lymphocyte subpopulations in peripheral blood was done by flow cytometry using monoclonal Abs to CD19 or CD20 for B cells and monoclonal Abs to CD3, CD4, and CD8 for T cells. Sirolimus trough levels, IgG, CD3, CD4, CD8, CD19, CD20, N-terminal pro-brain natriuretic peptide, creatine kinase, creatine kinase-MB, C-reactive protein, platelets, alkaline phosphatase, gamma-glutamyl transferase, aspartate aminotransferase, and alanine aminotransferase were measured at regular intervals.
# [2] = system: anti-rAAV NAbs / GAA antibody responses; conditions: cited from earlier work
# AAV1 capsid proteins = test: ELISA for circulating antibodies to AAV1 capsid in serum of Pompe subjects; conditions: Pompe patient, rituximab with sirolimus prior to rAAV1-GAA
# Method: Serum samples were assayed by ELISA for circulating antibodies to the AAV1 capsid proteins.
# Serum samples were assayed by enzyme linked immunosorbent assay (ELISA) for circulating antibodies to the intact AAV1 capsid and hGAA protein 21, 46. Anti-AAV1 and anti-hGAA ASR and ELISPOT assay were performed as previously described on isolated peripheral blood mononuclear cells (ref. 47).
substance,measurement,setting,value
Rituximab: monoclonal antibody that induces B-cell depletion by binding the CD20 protein found on the surface of B-cells,CD20 counts (B-cells),[1],complete depletion
same,GAA antibody responses to ERT,"[2]; CRIM-negative infants with early-onset Pompe disease, Rituximab plus Sirolimus before initiation of ERT (Elder et al.)",able to block GAA antibody responses
same,existing anti-rAAV NAbs,[2]; humans receiving rituximab for rheumatoid arthritis (ref. 33) and non-human primates,successful in reduction
same,immune response to rAAV vector (capsid and transgene) after B-cell depletion prior to vector exposure,AAV1 capsid proteins,immune non-responsiveness; also recorded: nonresponsiveness to both capsid and transgene

# From US20220347297A1, “METHODS OF PERMITTING A SUBJECT TO RECEIVE MULTIPLE DOSES OF RECOMBINANT ADENO-ASSOCIATED VIRUS” (University of Florida Research Foundation, Incorporated, priority 2014, published 2022)
